Data: patent publication US20090169472A1, “METHODS AND COMPOSITIONS FOR TREATING IMMUNE DISORDERS” (CANCER RESEARCH TECHNOLOGY LTD., priority 2005, published 2009)
Oligonucleotides are written 5' to 3', each unit as a sugar letter and its base; * is a phosphorothioate linkage, no mark a phosphodiester; rarer units and linkages stand in square brackets, end groups in braces. Plain capitals give the bases only. r = 2'-OH (RNA)

What was measured:
Flt3L-DC = Flt3L-DC activation assay (cytokines in supernatant by sandwich ELISA); format: cell-based, mouse
Method: Flt3L-DC were generated from bone marrow cell suspensions in RPMI 1640 medium containing 10% fetal calf serum, 2 mM glutamine, 100 units/ml penicillin, 100 μg/ml streptomycin, 50 μM 2-mercaptoethanol and 50 ng/ml murine Flt3L (R&D systems) and were used at day 10 or 11 of cultures.
For stimulation with oligonucleotides, 2×10^5 Flt3L-DC were seeded in triplicate in 96-well-plates. Oligonucleotides were added and cells were cultured overnight in a final volume of 200 μl. Controls contained medium alone, 0.5 μg/ml CpG 1668, 100 mM loxoribine or 1 μM R848.
For stimulation with oligonucleotides other than CpG 1668, different doses of each test oligonucleotides were diluted in 150 mM NaCl solution and mixed with an equal volume of 150 mM NaCl solution+/−polytheylenimine (PEI; 3 μl/ml PEI were used irrespective of the RNA dose). After 15 min incubation at room temperature, oligonucleotide/PEI complexes were added to cells. Supernatants were collected after 18-20 hr of culture and levels of IFNα, IL-6 and IL-12 p40 were determined by sandwich ELISA.

[1] = system: human plasmacytoid DC (pDC); test: Human pDC activation assay (IFNα and IL-6 in supernatant by sandwich ELISA); format: cell-based
Method: Human pDC activation assays. R848 and RNA9.2DR complexed to LyoVec were from Invivogen. RNA oligonucleotides were purchased from Sigma Proligo. Human PMBCs were purified from normal human peripheral blood by Ficoll-Hypaque centrifugation. BDCA4^+ plasmacytoid DC were purified from total PBMC by positive selection using CD304^+ Microbeads and MiniMacs from MiltenyiBiotec. Oligonucleotides/PEI complexes, prepared as described above, were added to 1-2×10^5 pDC seeded in duplicate in 96-well-plates. Cells were cultured overnight in a final volume of 200 μl, supernatants were collected after 18-20 hr of culture and levels of IFNα and IL-6 were determined by sandwich ELISA.

[2] = polyUs 21-mer 10 μM as PEI complexes, RNA9.2DR 1 μM as LyoVec complexes, R848 1 μM

## polyUs-21: polyU RNA 21-mer, phosphorothioate bonds, SEQ ID NO 5 (rU*rU*rU*rU*rU*rU*rU*rU*rU*rU*rU*rU*rU*rU*rU*rU*rU*rU*rU*rU*rU)
Flt3L-DC; PEI complexes
  potency in inducing IFNα compared with RNA40: much more potent than RNA40
Flt3L-DC; PEI complexes, all doses tested
  IFNα levels, RNA oligonucleotide polyUs-21 compared with DNA oligonucleotide polydUs-21: induced higher levels of IFNα at all doses tested
Flt3L-DC; free oligonucleotide given to culture without PEI
  IFNα induction by Flt3L-DC: induced IFNα
Flt3L-DC; ligands at concentrations of maximum cytokine induction: polyUs-21 1 μg/ml + PEI, CpG 1668 0.5 μg/ml, loxoribine 100 mM, R848 10 μg/ml
  fold more potent in inducing IFNα by Flt3L-DC than R848 and loxoribine: approximately 30 times
Flt3L-DC; mouse Flt3L, PEI complexes
  optimal dose of ssRNA for IFNα induction: 3 µg/mL
Flt3L-DC; oligonucleotide/PEI complexes, C57BL/6 Flt3L-DC, overnight culture, result in words
  IFNα induction by Flt3L-DC: induced IFNα by Flt3L-DC in a dose dependent manner
Flt3L-DC; summary statement on oligonucleotides of Table 1
  ability to stimulate TLR7: capable of stimulating TLR7
[1]; PEI complexes, different doses of polyUs 21-mer, polyAs 21-mer 1 μM, overnight culture
  IFN-α production by human pDC: induced IFN-α production by human pDC in a dose-dependent manner
[1]; human pDC, PEI complexes
  optimal dose of ssRNA for IFN-α induction: 3 µg/mL
[1]; [2]
  IFNα production by human pDC, comparison of TLR7/8 agonists: induced equivalent levels of IFNα production by human pDC
  IL-6 induction by human pDC: failed to induce IL-6 secretion by pDC
